Our source for the Ki, IC50 and Activity values is ChEMBL document CHEMBL4811238, “Identification of N-phenyl-2-(phenylsulfonyl)acetamides/propanamides as new SLC-0111 analogues: Synthesis and evaluation of the carbonic anhydrase inhibitory activities” (Eur J Med Chem, 2021).

For orientation: Ki means the dissociation constant of the complex between target and ligand, obtained from inhibition or displacement. For orientation: IC50 means the concentration that inhibits the measured activity by half.

Calls of active or inactive are those of the source. The calls are words filed in the database; no cut-off is given here.

One assay concerns the target Carbonic anhydrase 1 (Homo sapiens, UniProt P00915). Briefly: Inhibition of recombinant human CA1 pre-incubated for 15 mins measured by phenol red dye based stopped flow CO2 hydration assay.
For another assay, the target named is Carbonic anhydrase 9 (Homo sapiens, UniProt Q16790).
Another assay has as its target Carbonic anhydrase 12 (Homo sapiens, UniProt O43570). Briefly: Inhibition of recombinant human CA12 pre-incubated for 15 mins measured by phenol red dye based stopped flow CO2 hydration assay.
Another assay has as its target Carbonic anhydrase 2 (Homo sapiens, UniProt P00918).
For assay [1], the system named is HCT-116. Briefly: Antiproliferative activity against human HCT-116 cells after 48 hrs under hypoxic condition by MTT assay. Format: functional, cell-based. Conditions: HCT-116, 48 h. On the technique in general: Formazan colour is commonly taken as a measure of viable cells.
The test system of another assay is MCF7. Kind of assay: Antiproliferative activity against human MCF7 cells after 48 hrs under hypoxic condition by MTT assay. Type of assay: functional, cell-based. The conditions noted are these: MCF7, 48 h.
Assay [2] concerns HCT-116. Briefly: Induction of cell cycle arrest in human HCT116 cells assessed as cell accumulation at sub-G1 phase at IC50 concentration after 24 hrs by propidium iodide staining based flow cytometry analysis. Format: functional. In general terms: Flow cytometry measures light scatter and fluorescence of single cells or particles in a stream.
Assay [3] has as its system HCT-116. Kind of assay: Induction of cell cycle arrest in human HCT116 cells assessed as cell accumulation at S phase at IC50 concentration after 24 hrs by propidium iodide staining based flow cytometry analysis. Format: functional.
Assay [4] concerns HCT-116. Kind of assay: Induction of apoptosis in human HCT116 cells assessed as early apoptotic cells after 24 hrs by Annexin-V-FITC/PI-staining based flow cytometry (reference value: 0.59%). Type of assay: functional.
Assay [5] has as its system HCT-116. Kind of assay: Induction of apoptosis in human HCT116 cells assessed as late apoptotic cells after 24 hrs by Annexin-V-FITC/PI-staining based flow cytometry (reference value: 0.22%). Format: functional.
For assay [6], the system named is HCT-116. Briefly: Induction of apoptosis in human HCT116 cells assessed as necrotic cells after 24 hrs by Annexin-V-FITC/PI-staining based flow cytometry (reference value: 1.01%). Format: functional.

Chain of Carbonic anhydrase 12 (O43570 whole entry): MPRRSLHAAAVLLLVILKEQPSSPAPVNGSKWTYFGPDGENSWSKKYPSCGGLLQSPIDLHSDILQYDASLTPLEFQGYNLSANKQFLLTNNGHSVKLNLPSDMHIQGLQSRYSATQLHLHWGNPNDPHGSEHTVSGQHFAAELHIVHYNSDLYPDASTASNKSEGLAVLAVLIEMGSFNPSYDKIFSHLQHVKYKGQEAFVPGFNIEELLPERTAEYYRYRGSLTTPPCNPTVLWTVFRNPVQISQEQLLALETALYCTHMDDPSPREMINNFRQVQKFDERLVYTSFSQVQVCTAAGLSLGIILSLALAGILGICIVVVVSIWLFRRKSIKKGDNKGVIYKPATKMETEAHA
Chain of Carbonic anhydrase 1 (P00915 whole entry): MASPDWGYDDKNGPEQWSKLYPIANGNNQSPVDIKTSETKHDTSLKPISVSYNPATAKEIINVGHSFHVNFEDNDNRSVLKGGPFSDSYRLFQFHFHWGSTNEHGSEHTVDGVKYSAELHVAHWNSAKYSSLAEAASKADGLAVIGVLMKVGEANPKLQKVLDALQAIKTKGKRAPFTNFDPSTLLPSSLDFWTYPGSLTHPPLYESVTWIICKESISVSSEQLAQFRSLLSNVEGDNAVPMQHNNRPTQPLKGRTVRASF
Description for Carbonic anhydrase 2: Inhibition of recombinant human CA2 pre-incubated for 15 mins measured by phenol red dye based stopped flow CO2 hydration assay
Description for Carbonic anhydrase 9: Inhibition of recombinant human CA9 pre-incubated for 15 mins measured by phenol red dye based stopped flow CO2 hydration assay

For `CCOC(=O)c1ccc(NC(=O)CS(=O)(=O)c2ccc(C)cc2)cc1`, the Ki on Carbonic anhydrase 1 was over 100 µM; on Carbonic anhydrase 9 it was 29.5 µM; at Carbonic anhydrase 12 it was over 100 µM.
For the molecule `CC(=O)c1ccc(NC(=O)CS(=O)(=O)c2ccc(C)cc2)cc1`, the Ki at Carbonic anhydrase 1, on Carbonic anhydrase 9, at Carbonic anhydrase 12 and at Carbonic anhydrase 2 was over 100 µM in each case.
Turning to `CCOC(=O)c1ccc(NC(=O)CS(=O)(=O)c2ccccc2)cc1`, the results for the Ki on Carbonic anhydrase 1, at Carbonic anhydrase 9 and at Carbonic anhydrase 2 were over 100 µM, 17.2 µM and over 100 µM, respectively.
On Carbonic anhydrase 9, `NS(=O)(=O)c1ccc(NC(=O)CCS(=O)(=O)c2ccccc2)cc1` gave a Ki of 0.0461 µM.
For `Cc1ccc(S(=O)(=O)CC(=O)Nc2ccc([N+](=O)[O-])cc2)cc1`, the Ki on Carbonic anhydrase 1, at Carbonic anhydrase 9, on Carbonic anhydrase 12 and at Carbonic anhydrase 2 was over 100 µM each time.
Consider `Cc1ccc(S(=O)(=O)CC(=O)Nc2ccc(C(=O)O)cc2)cc1`, for which, on Carbonic anhydrase 9, affinity was put at a Ki of 0.72 µM. The concentration for half-maximal inhibition (IC50) with HCT-116 [1] is 2.23 µM; with MCF7, 3.41 µM.
With `Cc1ccc(S(=O)(=O)CCC(=O)Nc2ccc(S(N)(=O)=O)cc2)cc1`, the Ki at Carbonic anhydrase 9 turned out to be 0.0043 µM. Further, the IC50 in the assay with HCT-116 [1] was found to be 0.57 µM; in the assay on MCF7, 0.67 µM. Moreover, the result in the assay on HCT-116 [2] and in the assay with HCT-116 [3] was Active. Further, the Activity with HCT-116 [4] is 0.91%; with HCT-116 [5], 21.45%; in the assay with HCT-116 [6], 9.63%.
With `O=C(CS(=O)(=O)c1ccccc1)Nc1ccc(C(=O)O)cc1`, the Ki on Carbonic anhydrase 1 was over 100 µM; at Carbonic anhydrase 9 it was 0.93 µM. Also, the IC50 turned out to be 11.6 µM in the assay on HCT-116 [1] and 5.29 µM in the assay on MCF7.
Molecule `CC(C(=O)Nc1ccc(S(N)(=O)=O)cc1)S(=O)(=O)c1ccccc1` (centres undefined) gave a Ki at Carbonic anhydrase 9 of 0.0065 µM.
As to `Cc1ccc(S(=O)(=O)CC(=O)Nc2ccc(S(N)(=O)=O)cc2)cc1`, on Carbonic anhydrase 9, the Ki stood at 0.0159 µM.
The same measure, in the same setting: to `Cc1ccc(S(=O)(=O)C(C)C(=O)Nc2ccc(S(N)(=O)=O)cc2)cc1` (centres undefined) belongs 0.0298 µM; to `NS(=O)(=O)c1ccc(NC(=O)CS(=O)(=O)c2ccccc2)cc1`, 0.0227 µM.
